Laboratory results: patent US4410516A, “1-N(αHydroxy-ω-aminoalkanoyl) derivatives of 5,3',4'-trideoxy- or 5,3', 4'-trideoxy-6'-N- methyl- or 5, 3', 4',6"-tetradeoxykannamyci B and production thereof” (Zaidan Hojin Biseibutsu Kagaku Kenkyu Kai, priority 1981, dated 1983)
Where two headings read alike, the source gives them in different places.

Legend:
Format in all cases: cell-based
[1] = test system: Staphylococcus aureus 209P; test: Minimum inhibitory concentration, serial dilution on nutrient agar; conditions: 37° C., 18 hours incubation
[2] = test system: Staphylococcus aureus AP01; test: as above; conditions: 37° C., 18 hours incubation
[3] = test system: Micrococcus flavus FDA 16; test: as above
Sarcina lutea PCI 1001 = test: as above; conditions: Micrococcus luteus, PCI1001; nutrient agar, 37° C., 18 hours incubation; read-out: MIC
Bacillus anthracis = test: microbe, parasite or virus in culture; conditions: 18 h
[4] = test system: Bacillus subtilis PCI 219; test: Minimum inhibitory concentration, serial dilution on nutrient agar; conditions: PCI219, 37° C., 18 hours incubation
[5] = test system: Bacillus cereus ATCC 10702; test: as above; conditions: ATCC10702, nutrient agar, 37° C., 18 hours incubation, read-out: MIC
[6] = test system: Mycobacterium smegmatis ATCC 607; test: as above; conditions: Mycolicibacterium smegmatis, ATCC607; nutrient agar, 37° C., 18 hours incubation; read-out: MIC
Escherichia coli NIHJ = test: as above; conditions: nutrient agar, 37° C., 18 hours incubation, read-out: MIC
Escherichia coli K-12 = test: as above; conditions: K12, nutrient agar, 37° C., 18 hours incubation, read-out: MIC
Escherichia coli K-12 R5 = test: as above; conditions: K12R5, 18 h
[7] = test system: Escherichia coli K-12 C 600R/35; test: as above; conditions: K12C600R/35, 37° C., 18 hours incubation
Source text: (§1) The minimum inhibitory concentration (mcg/ml) of 1-N-[(S)-4-amino-2-hydroxybutyryl]-5,3',4'-trideoxykanamycin B (abbreviated as AHB-trideoxyKMB), 1-N-[(RS)-3-amino-2-hydroxypropionyl]-5,3',4'-trideoxykanamycin B (abbreviated as AHP-trideoxy-KMB) and 1-N-[(S)-4-amino-2-hydroxybutyryl]-5,3',4',6"-tetradeoxykanamycin B (abbreviated as AHB-tetradeoxyKMB) of the formula (II) according to this invention as well as of the new compound 5,3',4',6"-tetradeoxykanamycin B (abbreviated as tetradeoxyKMB) of the formula (III) according to this invention against various microorganisms were determined according to serial dilution method on a nutrient agar medium at 37° C., the estimation being made after 18 hours incubation. For comparison purpose, the minimum inhibitory concentrations of habekacin were also determined in the same manner as stated above.
(§2) The minimum inhibitory concentrations (mcg/ml) of 1-N-[(S)-4-amino-2-hydroxybutyryl]-5,3',4'-trideoxy-6'-N-methylkanamycin B (abbreviated as AHB-trideoxyMKMB), 1-N-[(RS)-3-amino-2-hydroxypropionyl]-5,3',4'-trideoxy-6'-N-methylkanamycin B (abbreviated as AHP-trideoxyMKMB) and 1-N-[(S)-5-amino-2-hydroxyvaleryl]-5,3',4'-trideoxy-6'-N-methylkanamycin B (abbreviated as AHV-trideoxyMKMB) of the formula (IV) according to this invention as well as of the new compound 5,3',4'-trideoxy-6'-N-methylkanamycin B (abbreviated as trideoxyMKMB) of the formula (V) according to this invention against various microorganisms were determined according to serial dilution method on a nutrient agar medium at 37° C., the estimation being made after 18 hours incubation. For comparison purpose, the minimum inhibitory concentrations of 1-N-[(S)-4-amino-2-hydroxybutyryl]-3',4'-dideoxykanamycin B (ie. habekacin) were also determined in the same manner as stated above.

[8] = test system: Escherichia coli K-12 J5R 11-2; test: as above; conditions: K12J5R112, 37° C., 18 hours incubation
Source text: as §1, §2

[9] = test system: Escherichia coli K-12 ML 1630; test: as above; conditions: K12ML1630, 37° C., 18 hours incubation
Source text: as §1, §2

[10] = test system: Shigella flexneri 4b JS11811; test: as above; conditions: 4BJS11811, 37° C., 18 hours incubation
Source text: as §1, §2

Shigella sonnei JS11746 = test: as above; conditions: 37° C., 18 hours incubation
Source text: as §1, §2

[11] = test system: Escherichia coli K-12 LA 290 R56; test: as above; conditions: K12LA290R56, 18 h
[12] = test system: Escherichia coli K-12 LA 290 R64; test: as above; conditions: K12LA290R64, 18 h
[13] = test system: Escherichia coli JR66/W677; test: as above
[14] = test system: Klebsiella pneumoniae PCI 602; test: as above; conditions: PCI602, nutrient agar, 37° C., 18 hours incubation, read-out: MIC
Salmonella typhi T-63 = test: as above; conditions: Salmonella enterica, 18 h
Serratia SOU = test: as above; conditions: 37° C., 18 hours incubation
Serratia 4 = test: as above; conditions: 37° C., 18 hours incubation
Providencia Pv 16 = test: as above; conditions: PV16, 37° C., 18 hours incubation
[15] = test system: Pseudomonas aeruginosa No. 12; test: as above
[16] = test system: Pseudomonas aeruginosa H9; test: as above; conditions: H9, 18 h
[17] = test system: Pseudomonas aeruginosa TI-13; test: as above; conditions: TI13, 18 h
[18] = test system: Pseudomonas aeruginosa 99; test: as above
[19] = test system: Pseudomonas aeruginosa 21-75; test: as above; conditions: 2175, 37° C., 18 hours incubation
[20] = test system: Pseudomonas aeruginosa K-Ps102; test: as above
[21] = test system: Pseudomonas maltophilia GN907; test: as above; conditions: Stenotrophomonas maltophilia, 37° C., 18 hours incubation
[22] = Pseudomonas aeruginosa, 99, 18 h
[23] = FDA16, nutrient agar, 37° C., 18 hours incubation, read-out: MIC

Measured: MIC

CNC[C@@H]1CC[C@@H](N)[C@@H](O[C@H]2C[C@@H](O[C@H]3O[C@H](CO)[C@@H](O)[C@H](N)[C@H]3O)[C@H](NC(=O)[C@@H](O)CCN)C[C@@H]2N)O1 [AHB-trideoxyMKMB, 1-N-[(S)-4-amino-2-hydroxybutyryl]-5,3',4'-trideoxy-6'-N-methylkanamycin B]
3.13 µg/mL: Escherichia coli K-12 R5 | Shigella sonnei JS11746 | [18]; [22]
6.25 µg/mL: Serratia 4 | Providencia Pv 16
12.5 µg/mL: [19]
25 µg/mL: Serratia SOU
< 0.2 µg/mL: [1] | Bacillus anthracis | [4] | [6]
0.78 µg/mL: Escherichia coli NIHJ | Escherichia coli K-12 | [10] | [11] | [14]
1.56 µg/mL: [3]; FDA16, 18 h | [7] | [8] | [9] | [12] | [13]; JR66/W677, 18 h | Salmonella typhi T-63 | [15]; NO.12, 18 h | [16] | [17] | [20]; KPS102, 18 h
> 100 µg/mL: [21]
0.39 µg/mL: [2] | Sarcina lutea PCI 1001 | [5]

C[C@H]1O[C@H](O[C@@H]2C[C@H](O[C@H]3O[C@H](CN)CC[C@H]3N)[C@@H](N)C[C@H]2NC(=O)[C@@H](O)CCN)[C@H](O)[C@@H](N)[C@@H]1O [AHB-tetradeoxyKMB, 1-N-[(S)-4-amino-2-hydroxybutyryl]-5,3',4',6"-tetradeoxykanamycin B]
50 µg/mL: Escherichia coli K-12 R5
0.78 µg/mL: [2] | Sarcina lutea PCI 1001 | Escherichia coli NIHJ | Escherichia coli K-12 | [7] | [8] | [12] | [14]
12.5 µg/mL: [19]
0.39 µg/mL: [5] | [11]
25 µg/mL: Salmonella typhi T-63 | Serratia 4 | Providencia Pv 16
> 100 µg/mL: [21]
3.13 µg/mL: Shigella sonnei JS11746 | [16] | [17] | [20]; KPS102, 18 h
1.56 µg/mL: [9] | [10] | [13]; JR66/W677, 18 h
100 µg/mL: Serratia SOU
< 0.2 µg/mL: [1] | Bacillus anthracis | [4] | [6]
6.25 µg/mL: [3]; [23] | [15]; NO.12, nutrient agar, 37° C., 18 hours incubation, read-out: MIC | [18]; Pseudomonas aeruginosa, 99, nutrient agar, 37° C., 18 hours incubation, read-out: MIC

NCC[C@H](O)C(=O)N[C@@H]1C[C@H](N)[C@@H](O[C@H]2O[C@H](CN)CC[C@H]2N)C[C@H]1O[C@H]1O[C@H](CO)[C@@H](O)[C@H](N)[C@H]1O [AHB-trideoxyKMB, 1-N-[(S)-4-amino-2-hydroxybutyryl]-5,3',4'-trideoxykanamycin B]
25 µg/mL: Salmonella typhi T-63
0.39 µg/mL: [2] | Sarcina lutea PCI 1001
0.2 µg/mL: [6]
0.78 µg/mL: [5] | Escherichia coli NIHJ | Escherichia coli K-12 | [7] | [8] | [11] | [12] | [14]
3.13 µg/mL: [10] | Shigella sonnei JS11746 | [15]; NO.12, 18 h | [16] | [17] | [18]; [22]
1.56 µg/mL: [3]; [23] | [9] | [13]; JR66/W677, nutrient agar, 37° C., 18 hours incubation, read-out: MIC | [20]; KPS102, nutrient agar, 37° C., 18 hours incubation, read-out: MIC
6.25 µg/mL: [19]
< 0.2 µg/mL: [1] | Bacillus anthracis | [4]
> 100 µg/mL: [21]
12.5 µg/mL: Serratia 4 | Providencia Pv 16
100 µg/mL: Escherichia coli K-12 R5 | Serratia SOU
